Reference: patent US20080293683A1, “Hormone Replacement Therapy” (University of Kansas Medical Center, priority 2007, published 2008)
Values joined by “and” are separate entries in the source; they are usually repeats but may differ in a detail not shown here. Identical values can stand only once. Like-named read-outs stand apart in the source and are kept apart here.

What was measured:
[1] = molecular target: T1, recombinant human ERα (Homo sapiens, UniProt P03372); assay: ERα binding assay: competition of [3H]E2 binding by competing estrogens; conditions: for RBAα/RBAβ: ratio of relative binding affinities ERα over ERβ; for RBAα % (relative binding affinity for ERα, of E2): calculated against E2 = 100; for RBAα/RBAβ determined by extrapolating the curves: extrapolated from curves of FIGS. 3-7, IC50 not reached
T1 construct: purchased PanVera Corporation (Madison, Wis.); host or cells: baculovirus-mediated expression system
T1 sequence (P03372 1-595): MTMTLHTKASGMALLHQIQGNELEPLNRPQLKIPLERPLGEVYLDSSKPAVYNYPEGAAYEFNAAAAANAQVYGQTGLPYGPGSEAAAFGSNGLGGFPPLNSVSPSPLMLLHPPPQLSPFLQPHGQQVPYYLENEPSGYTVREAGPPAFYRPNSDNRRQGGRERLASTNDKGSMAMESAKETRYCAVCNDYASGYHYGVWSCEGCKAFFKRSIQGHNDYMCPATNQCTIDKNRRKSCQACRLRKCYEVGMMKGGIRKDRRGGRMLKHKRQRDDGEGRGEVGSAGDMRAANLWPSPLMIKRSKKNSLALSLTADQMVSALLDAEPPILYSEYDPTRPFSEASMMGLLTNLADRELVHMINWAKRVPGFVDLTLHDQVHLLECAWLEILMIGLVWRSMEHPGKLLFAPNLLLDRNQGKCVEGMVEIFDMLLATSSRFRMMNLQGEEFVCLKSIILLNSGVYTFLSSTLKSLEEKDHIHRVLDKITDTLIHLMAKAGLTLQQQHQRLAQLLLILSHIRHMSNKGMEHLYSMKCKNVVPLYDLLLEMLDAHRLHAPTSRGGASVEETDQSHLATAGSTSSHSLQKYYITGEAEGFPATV
Description: (§1) The recombinant human ERα and ERβ proteins and bovine serum albumin (BSA) were obtained from PanVera Corporation (Madison, Wis.). According to the supplier, the recombinant human ERα and ERβ were produced in a baculovirus-mediated expression system, and they were soluble and functionally active, with post-translational modifications similar to those found in mammalian cells. See Reid et al., Human estrogen receptor-α: Regulation by synthesis, modification and degradation, Cell. Mol. Life.
(§2) The following buffer solutions were used in the ER binding assays, and they were prepared beforehand and stored at 4° C. The binding buffer consisted of 10% glycerol, 2 mM dithiothreitol, 1 mg/mL BSA and 10 mM Tris-HCl at pH 7.5. The ERα washing buffer contained 40 mM Tris-HCl and 100 mM KCl (pH 7.4), but the ERG washing buffer contained only 40 mM Tris-HCl (adjusted to pH 7.4). The 50% hydroxylapatite slurry was prepared first by vigorously mixing 10 g hydroxylapatite with 60 mL of the Tris-HCl solution (50 mM, pH 7.4). Hydroxylapatite was then allowed to settle for 20 minutes at room temperature, and the supernatant was decanted. The above procedures were repeated 10 times, and afterwards hydroxylapatite was kept in the 50 mM Tris-HCl solution overnight at 4° C. Hydroxylapatite slurry was then adjusted to an approximate final concentration of 50% (v/v) using the same Tris-HCl solution and stored at 4° C., and the slurry was stable for up to several months.
(§3) Note that all of the estrogens were initially dissolved in pure ethanol to a stock concentration of 1 mM, and then further diluted to 100 μM with 20% aqueous ethanol. […] Immediately before the addition of the ERα or ERβ protein, it was diluted in the binding buffer and mixed gently with repetitive pipettings. […] The incubation mixture was then mixed gently and thoroughly with repetitive pipettings. […] The binding mixture was incubated at room temperature for two hours. At the end of the incubation, 100 μL of the hydroxylapatite slurry was added to each tube and the tubes were incubated on ice for 15 minutes with 3 times of brief vortexing. An aliquot (1 mL) of the appropriate washing buffer was added, mixed, and centrifuged at 10,000 g for five minutes, and the supernatants were discarded. This wash step was repeated twice. Hydroxylapatite pellets were then resuspended in 200 μL ethanol (followed by another rinse with 200 μL ethanol), and then the content was transferred to scintillation vials (containing 4 mL of the scintillation fluid) for measurement of ^3H-radioactivity with a liquid scintillation counter (Packard Tri-CARB 2900 TR; Downers Grove, Ill.).
(§4) To calculate the specific binding (pmol/mL) of the human ERα or ERβ protein at each concentration point, the following equation was used: […]
(§5) When a lower radioligand concentration is used, the corresponding IC50 value will also be relatively lower, but when the radioligand concentration increases, the corresponding IC50 value will also increase. […] Since the RBA value is a parameter that is independent of the radioligand concentration used, we thus have placed more emphasis on the RBA values instead of the absolute IC50 values in interpreting the physiological meanings of the data from in vitro receptor competition assays.

[2] = molecular target: T2, recombinant human ERβ (Homo sapiens, UniProt Q92731); assay: ERβ binding assay: competition of [3H]E2 binding by competing estrogens; conditions: for RBAβ (%) (relative binding affinity for ERβ, of E2): calculated against E2 = 100; for binding affinity for ERβ (in words): concentrations up to 1000 nM
T2 construct: purchased PanVera Corporation (Madison, Wis.); host or cells: baculovirus-mediated expression system
T2 sequence (Q92731 whole entry): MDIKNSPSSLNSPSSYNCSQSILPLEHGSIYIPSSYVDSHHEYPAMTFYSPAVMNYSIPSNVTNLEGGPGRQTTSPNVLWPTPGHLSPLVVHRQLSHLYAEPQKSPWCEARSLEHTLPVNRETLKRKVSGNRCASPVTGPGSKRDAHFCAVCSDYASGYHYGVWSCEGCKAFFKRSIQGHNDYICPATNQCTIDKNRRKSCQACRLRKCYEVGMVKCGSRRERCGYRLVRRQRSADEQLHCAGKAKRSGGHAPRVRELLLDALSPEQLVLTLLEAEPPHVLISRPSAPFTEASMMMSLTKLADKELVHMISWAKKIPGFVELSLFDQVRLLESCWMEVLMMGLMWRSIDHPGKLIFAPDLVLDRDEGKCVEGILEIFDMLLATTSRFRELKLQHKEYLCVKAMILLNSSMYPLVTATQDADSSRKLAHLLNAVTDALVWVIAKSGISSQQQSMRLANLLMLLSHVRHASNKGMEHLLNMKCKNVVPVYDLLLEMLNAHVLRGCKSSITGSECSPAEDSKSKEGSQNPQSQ
Description: as §1, §2, §3, §4, §5

Row | Structure (SMILES) | RBAα/RBAβ [1] | RBAβ (%) (relative binding affinity for ERβ, of E2) [2] | RBAα % (relative binding affinity for ERα, of E2) [1] | IC50 ([1]; read-out: ERα IC50) [µM] | IC50 ([2]; read-out: ERβ IC50) [µM] | binding affinity for ERα (in words) ([1]; concentrations up to 1000 nM) | binding affinity for ERβ (in words) [2] | further results
1 | C[C@]12CC[C@@H]3c4ccc(O)cc4CC[C@H]3[C@@H]1C[C@@H](O)C2=O [16α-OH-E1, 16α-Hydroxyestrone] | 0.1 | 35 |  |  |  |  |  | IC50 [1]: 0.0562 µM; binding affinity for ERα (in words) [1]: twice as high as that of E1; IC50 [2]: 0.0251 µM; binding affinity for ERβ, fold higher than E1 ([2]; relative to E1): 18 fold
2 | Cc1cc(O)cc2c1[C@H]1CC[C@]3(C)[C@@H](O)CC[C@H]3[C@@H]1CC2 [1-Methyl-E2, 1-Methylestradiol] | 1.8 | 8 | 14% | 0.0794 | 0.112 |  |  | RBAα/RBAβ ([1]; listed as 1-methylestradiol): about 1.8; decrease of binding affinity for ERα compared to E2 ([1]; relative to E2): approximately 90%; decrease of binding affinity for ERβ compared to E2 ([2]; relative to E2): approximately 90%
3 | COc1c(O)ccc2c1CC[C@@H]1[C@@H]2CC[C@]2(C)[C@@H](O)[C@H](O)C[C@@H]12 [4-MeO-E3, 4-Methoxyestriol] | 1 | 1 | 1% | 1.26 | 0.631 |  |  | 
4 | C[C@]12CC[C@@H]3c4ccc(O)cc4CC[C@H]3[C@@H]1CC(=O)[C@@H]2O [16-Keto-E2, 16-Ketoestradiol] | 0.1 | 18 | 1% | 0.112 | 0.0501 |  |  | 
5 | COc1cc2c(cc1O)[C@H]1CC[C@]3(C)C(=O)CC[C@H]3[C@@H]1CC2 [2-OH-3-MeO-E1, 2-Hydroxyestrone 3-methyl ether] |  |  |  | > 1 | > 1 | did not have appreciable binding affinity | did not have appreciable binding affinity | 
6 | C[C@]12CC[C@@H]3c4ccc(O)cc4C(=O)C[C@H]3[C@@H]1CC[C@H]2O [6-Keto-E2-17α, 6-Ketoestradiol-17α] | 2 | 1 | 2% |  |  |  |  | IC50 [1]: 0.562 µM; RBAα/RBAβ ([1]; listed as 6-ketoestradiol-17α): about 2; RBA for ERα, % of E2-17α ([1]; relative to E2-17α): 9%; IC50 [2]: 1.12 µM; RBA for ERβ, % of E2-17α ([2]; relative to E2-17α): 25%
7 | CC12CC(O)C3c4ccc(O)cc4CCC3C1CCC2O (stereo not drawn) [11β-OH-E2, 11β-Hydroxyestradiol] |  |  |  | > 1 | > 1 |  |  | 
8 | C[C@]12CC[C@@H]3c4cc([N+](=O)[O-])c(O)cc4CC[C@H]3[C@@H]1CCC2=O [2-NO2-E1, 2-Nitroestrone] |  |  | 1% | 1.58 | > 1 | very weak binding affinities | very weak binding affinities | RBAα/RBAβ determined by extrapolating the curves [1]: about 3; RBAα/RBAβ determined by extrapolating the curves ([1]; listed as 2-nitorestrone): ~3
9 | CC12CCC3c4ccc(O)c(N)c4CCC3C1CCC2=O (stereo not drawn) [4-NH2-E1, 4-Aminoestrone] |  |  | 3% | 0.355 | > 1 | very weak binding affinities | very weak binding affinities | 
10 | Cc1c(O)ccc2c1CC[C@@H]1[C@@H]2CC[C@]2(C)[C@@H](O)CC[C@@H]12 [4-Methyl-E2, 4-Methylestradiol] | 0.3 | 35 | 7% and 9% | 0.126 | 0.0251 |  |  | 
11 | C[C@]12CC[C@@H]3c4ccc(O)cc4CC[C@H]3[C@@H]1[C@@H](O)[C@@H](O)[C@@H]2O [15α-OH-E3, 15α-Hydroxyestriol (Estetrol)] | 1.3 | 3 | 4% | 0.282 | 0.355 |  |  | RBAα/RBAβ ([1]; listed as estetrol): about 1.3
12 | COc1cc2c(cc1OC)C1CCC3(C)C(O)CCC3C1CC2 (stereo not drawn) [2,3-diMeO-E2, 17β-Estradiol 2,3-dimethyl ether] |  |  |  | > 1 | > 1 |  |  | 
13 | CC12CCC3c4ccc(O)c([N+](=O)[O-])c4CCC3C1CCC2=O (stereo not drawn) [4-NO2-E1, 4-Nitroestrone] |  |  | 3% | 0.447 | > 1 | very weak binding affinities | very weak binding affinities | 
14 | C[C@]12CC[C@@H]3c4ccc(O)cc4[C@H](O)C[C@H]3[C@@H]1CC[C@@H]2O [6β-OH-E2, 6β-Hydroxyestradiol] | 0.5 | 2 | 1% | 0.794 | 0.562 |  |  | 
15 | CC12CCC3c4cc(O)c(O)cc4CCC3C1CCC2=O (stereo not drawn) [2-OH-E1, 2-Hydroxyestrone] | 10 | 0.4 | 4% | 0.316 | 2 |  |  | preference of binding affinity for ERα over ERβ ([1]; ERα over ERβ): about ten-fold; RBAα/RBAβ ([1]; listed as 2-hydroxyestrone): about 10
16 | CCOc1cc2c(cc1O)CCC1C2CCC2(C)C(O)CCC12 (stereo not drawn) [2-Ethoxy-E2, 2-Ethoxyestradiol] |  |  |  | > 1 | > 1 | weak binding affinity | weak binding affinity | 
